Experimental findings from publication PMC5147024, “Combined Whole-Cell High-Throughput Functional Screening for Identification of New Nicotinamidases/Pyrazinamidases in Metagenomic/Polygenomic Libraries” (Frontiers in Microbiology, 2016) are described below.

This test concerns the target T1, PolyNic (polygenomic nicotinamidase).
T1 construct: 588 bp PCR product in pET-46 Ek/LIC, expressed in E. coli Rosetta 2 (DE3); dimer
Kind of test: HPLC nicotinamidase assay, Morrison fit, NAM as substrate (Ki […] with PZA as substrate). The class given is biochemical.

Compound `O=Cc1cccnc1` [nicotinaldehyde] displayed a Ki of 180 nM.

A word on the Ki: it is the dissociation constant of the complex between target and ligand, obtained from inhibition or displacement. Low values mean tighter binding, high ones weaker binding.
